Legend:
Format in all cases: cell-based
Conditions in all cases: compounds at 50 nM and 500 nM
[1] = target: T1, WEE1 (Homo sapiens, UniProt P30291+Q96SW2); experiment: Western blot degradation of WEE1 in hPBMCs (24 h)
T1 construct: The supernatant was aspirated as the extracted total cell protein; endogenous in cells; host or cells: human peripheral blood mononuclear cells (hPBMCs)
How it was run: (§1)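 Immunoblot densitometry quantifies target loss in hPBMCs after a 24 h compound exposure (50 nM, 500 nM). Percent remaining is normalised band intensity; DC50 is the concentration giving half the DMSO-control band grayscale.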

[2] = target: T2, IKZF1 (Homo sapiens, UniProt Q13422+Q96SW2); experiment: Western blot degradation of IKZF1 in hPBMCs (24 h)
T2 construct: The supernatant was aspirated as the extracted total cell protein; endogenous in cells; host or cells: human peripheral blood mononuclear cells (hPBMCs)
How it was run: as §1

[3] = target: T3, IKZF2 (Homo sapiens, UniProt Q96SW2+Q9UKS7); experiment: Western blot degradation of IKZF2 in hPBMCs (24 h)
T3 construct: The supernatant was aspirated as the extracted total cell protein; endogenous in cells; host or cells: human peripheral blood mononuclear cells (hPBMCs)
How it was run: as §1

[4] = target: T4, IKZF3 (Homo sapiens, UniProt Q96SW2+Q9UKT9); experiment: Western blot degradation of IKZF3 in hPBMCs (24 h)
T4 construct: The supernatant was aspirated as the extracted total cell protein; endogenous in cells; host or cells: human peripheral blood mononuclear cells (hPBMCs)
How it was run: as §1

[5] = target: T5, CK1α (Homo sapiens, UniProt P48729+Q96SW2); experiment: Western blot degradation of CK1α in hPBMCs (24 h)
T5 construct: The supernatant was aspirated as the extracted total cell protein; endogenous in cells; host or cells: human peripheral blood mononuclear cells (hPBMCs)
How it was run: as §1

[6] = target: T6, GSPT1 (Homo sapiens, UniProt P15170+Q96SW2); experiment: Western blot degradation of GSPT1 in hPBMCs (24 h)
T6 construct: The supernatant was aspirated as the extracted total cell protein; endogenous in cells; host or cells: human peripheral blood mononuclear cells (hPBMCs)
How it was run: as §1

T2 sequence (Q13422 whole entry): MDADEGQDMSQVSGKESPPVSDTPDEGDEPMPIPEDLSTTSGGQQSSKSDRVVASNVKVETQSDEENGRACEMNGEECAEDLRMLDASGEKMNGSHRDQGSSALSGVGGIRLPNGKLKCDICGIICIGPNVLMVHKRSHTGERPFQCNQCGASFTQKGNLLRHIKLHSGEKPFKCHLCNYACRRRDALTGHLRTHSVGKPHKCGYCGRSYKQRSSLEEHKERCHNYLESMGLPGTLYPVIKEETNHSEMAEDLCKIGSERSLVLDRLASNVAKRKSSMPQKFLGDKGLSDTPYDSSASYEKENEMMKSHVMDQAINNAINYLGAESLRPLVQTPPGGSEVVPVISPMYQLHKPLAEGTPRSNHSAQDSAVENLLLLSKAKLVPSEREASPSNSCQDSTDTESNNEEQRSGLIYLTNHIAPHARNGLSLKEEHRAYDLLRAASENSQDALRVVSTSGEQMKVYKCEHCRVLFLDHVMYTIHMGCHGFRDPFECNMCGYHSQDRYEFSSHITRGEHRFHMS
T2 sequence (Q96SW2 whole entry): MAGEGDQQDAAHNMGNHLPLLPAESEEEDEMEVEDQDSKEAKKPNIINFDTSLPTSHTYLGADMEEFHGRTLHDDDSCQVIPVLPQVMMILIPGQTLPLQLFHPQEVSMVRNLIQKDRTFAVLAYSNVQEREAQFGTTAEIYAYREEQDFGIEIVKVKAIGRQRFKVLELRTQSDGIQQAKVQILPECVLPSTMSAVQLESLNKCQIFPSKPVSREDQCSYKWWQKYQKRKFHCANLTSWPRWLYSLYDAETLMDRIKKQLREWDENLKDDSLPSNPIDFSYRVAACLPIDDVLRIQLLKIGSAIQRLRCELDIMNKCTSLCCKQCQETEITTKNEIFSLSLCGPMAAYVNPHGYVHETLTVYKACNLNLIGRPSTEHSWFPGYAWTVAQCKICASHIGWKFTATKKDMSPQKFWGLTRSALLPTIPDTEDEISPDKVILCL
T2 sequence (Q16531 whole entry partner): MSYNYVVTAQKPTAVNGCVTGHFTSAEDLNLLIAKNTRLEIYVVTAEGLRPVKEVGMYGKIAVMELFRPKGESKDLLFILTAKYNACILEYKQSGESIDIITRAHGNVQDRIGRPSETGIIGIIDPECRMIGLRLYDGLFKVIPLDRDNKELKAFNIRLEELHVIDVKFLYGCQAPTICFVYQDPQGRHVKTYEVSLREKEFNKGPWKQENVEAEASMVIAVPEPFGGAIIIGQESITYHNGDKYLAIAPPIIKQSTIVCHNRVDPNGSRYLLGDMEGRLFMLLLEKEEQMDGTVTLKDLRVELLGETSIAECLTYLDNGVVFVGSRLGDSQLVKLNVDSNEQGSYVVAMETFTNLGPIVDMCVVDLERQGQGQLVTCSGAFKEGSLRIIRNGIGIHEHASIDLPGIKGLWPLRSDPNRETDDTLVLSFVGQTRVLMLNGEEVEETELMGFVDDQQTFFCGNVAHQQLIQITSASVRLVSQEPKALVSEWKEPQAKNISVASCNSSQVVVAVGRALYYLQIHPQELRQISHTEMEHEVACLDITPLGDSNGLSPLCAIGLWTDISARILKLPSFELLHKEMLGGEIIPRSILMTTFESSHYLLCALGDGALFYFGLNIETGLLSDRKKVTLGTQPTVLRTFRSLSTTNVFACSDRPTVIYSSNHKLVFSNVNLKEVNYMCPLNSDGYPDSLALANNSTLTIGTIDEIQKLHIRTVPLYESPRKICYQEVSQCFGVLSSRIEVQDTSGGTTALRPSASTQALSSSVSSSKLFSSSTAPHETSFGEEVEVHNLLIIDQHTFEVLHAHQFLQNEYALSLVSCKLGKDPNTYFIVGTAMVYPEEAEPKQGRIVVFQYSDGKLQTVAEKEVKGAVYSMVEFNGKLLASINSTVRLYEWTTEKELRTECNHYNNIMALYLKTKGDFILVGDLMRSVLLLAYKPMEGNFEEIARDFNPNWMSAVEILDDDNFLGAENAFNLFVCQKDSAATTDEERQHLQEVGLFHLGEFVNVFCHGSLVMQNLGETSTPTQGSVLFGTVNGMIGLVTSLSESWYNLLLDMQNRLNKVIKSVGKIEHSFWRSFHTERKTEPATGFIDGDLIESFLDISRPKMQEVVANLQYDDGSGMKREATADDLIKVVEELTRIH
T6 sequence (P15170 whole entry): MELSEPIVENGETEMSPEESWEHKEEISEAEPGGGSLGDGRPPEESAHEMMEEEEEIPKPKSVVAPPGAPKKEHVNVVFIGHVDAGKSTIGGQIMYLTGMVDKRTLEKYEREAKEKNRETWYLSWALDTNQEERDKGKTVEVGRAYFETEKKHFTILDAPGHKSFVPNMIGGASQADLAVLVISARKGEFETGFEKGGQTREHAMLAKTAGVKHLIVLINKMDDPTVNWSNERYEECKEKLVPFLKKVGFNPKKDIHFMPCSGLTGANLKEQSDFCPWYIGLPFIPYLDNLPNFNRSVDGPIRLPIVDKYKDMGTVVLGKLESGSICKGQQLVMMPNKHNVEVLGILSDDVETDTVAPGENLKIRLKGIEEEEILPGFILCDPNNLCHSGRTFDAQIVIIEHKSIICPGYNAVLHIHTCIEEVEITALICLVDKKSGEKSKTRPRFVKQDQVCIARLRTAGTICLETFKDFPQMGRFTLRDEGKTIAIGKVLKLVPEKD
T6 sequence (Q96SW2 whole entry): as the sequence (Q96SW2 whole entry) above
T6 sequence (Q16531 whole entry partner): as the sequence (Q16531 whole entry partner) above
T5 sequence (P48729 whole entry): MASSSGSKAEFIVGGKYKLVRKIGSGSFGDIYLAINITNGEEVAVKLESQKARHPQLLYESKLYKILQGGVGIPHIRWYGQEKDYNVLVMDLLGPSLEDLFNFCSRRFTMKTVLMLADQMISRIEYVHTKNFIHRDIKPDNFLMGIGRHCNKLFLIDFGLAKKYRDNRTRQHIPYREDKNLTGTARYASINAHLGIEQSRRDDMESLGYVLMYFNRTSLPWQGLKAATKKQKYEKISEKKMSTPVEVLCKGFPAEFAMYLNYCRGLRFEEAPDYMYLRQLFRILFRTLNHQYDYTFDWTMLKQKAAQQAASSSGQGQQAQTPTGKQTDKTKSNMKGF
T5 sequence (Q96SW2 whole entry): as the sequence (Q96SW2 whole entry) above
T5 sequence (Q16531 whole entry partner): as the sequence (Q16531 whole entry partner) above
T1 sequence (P30291 whole entry): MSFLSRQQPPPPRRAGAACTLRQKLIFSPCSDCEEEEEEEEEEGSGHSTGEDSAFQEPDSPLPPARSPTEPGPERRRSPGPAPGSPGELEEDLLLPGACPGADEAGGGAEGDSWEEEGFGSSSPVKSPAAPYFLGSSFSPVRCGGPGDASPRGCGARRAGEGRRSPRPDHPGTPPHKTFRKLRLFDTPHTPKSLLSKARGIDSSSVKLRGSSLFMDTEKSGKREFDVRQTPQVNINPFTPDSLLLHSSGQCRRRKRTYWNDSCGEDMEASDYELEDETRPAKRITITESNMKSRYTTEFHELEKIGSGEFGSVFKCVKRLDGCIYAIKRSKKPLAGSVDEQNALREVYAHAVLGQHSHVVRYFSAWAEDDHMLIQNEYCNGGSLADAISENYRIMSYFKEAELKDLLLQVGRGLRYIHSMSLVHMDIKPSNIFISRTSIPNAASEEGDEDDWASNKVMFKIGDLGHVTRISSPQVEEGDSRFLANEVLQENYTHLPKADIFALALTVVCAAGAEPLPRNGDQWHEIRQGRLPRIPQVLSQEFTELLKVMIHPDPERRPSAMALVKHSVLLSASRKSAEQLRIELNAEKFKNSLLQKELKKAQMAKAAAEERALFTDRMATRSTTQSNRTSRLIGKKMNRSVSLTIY
T1 sequence (Q96SW2 whole entry): as the sequence (Q96SW2 whole entry) above
T1 sequence (Q16531 whole entry partner): as the sequence (Q16531 whole entry partner) above
T4 sequence (Q9UKT9 whole entry): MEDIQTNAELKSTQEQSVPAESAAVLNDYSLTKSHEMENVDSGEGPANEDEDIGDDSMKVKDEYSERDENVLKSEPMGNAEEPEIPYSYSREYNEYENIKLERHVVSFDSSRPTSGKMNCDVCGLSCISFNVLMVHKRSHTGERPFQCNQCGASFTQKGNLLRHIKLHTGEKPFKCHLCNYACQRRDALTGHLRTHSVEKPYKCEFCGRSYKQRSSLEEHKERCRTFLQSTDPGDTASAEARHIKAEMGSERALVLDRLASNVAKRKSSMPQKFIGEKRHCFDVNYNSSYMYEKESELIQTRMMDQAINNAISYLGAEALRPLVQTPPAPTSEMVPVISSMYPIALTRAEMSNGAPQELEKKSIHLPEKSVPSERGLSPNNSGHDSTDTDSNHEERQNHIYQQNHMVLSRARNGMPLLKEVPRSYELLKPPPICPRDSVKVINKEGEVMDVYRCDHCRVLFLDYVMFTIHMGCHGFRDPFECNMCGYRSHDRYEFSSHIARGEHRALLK
T4 sequence (Q96SW2 whole entry): as the sequence (Q96SW2 whole entry) above
T4 sequence (Q16531 whole entry partner): as the sequence (Q16531 whole entry partner) above

Row | SMILES | WEE1 substrate protein remaining % [1] | IKZF1 substrate protein remaining % [2] | IKZF2 substrate protein remaining % [3] | IKZF3 substrate protein remaining % [4] | CK1α substrate protein remaining % [5] | GSPT1 substrate protein remaining % [6]
1 | O=C1CCN(N2C(=O)c3ccc(CN4CCN(c5ccncc5)CC4)cc3C2=O)C(=O)N1 [GT-07073, 2-(2,4-dioxotetrahydropyrimidin-1(2H)-yl)-5-((4-(pyridin-4-yl)piperazin-1-yl)methyl)isoindoline-1,3-dione] | A (0% ≤ substrate protein remaining % ≤80%) | B (80%< substrate protein remaining % ≤100%) | B (80%< substrate protein remaining % ≤100%) | B (80%< substrate protein remaining % ≤100%) | B (80%< substrate protein remaining % ≤100%) | B (80%< substrate protein remaining % ≤100%)
2 | O=C1CCN(N2Cc3cc(CN4CCN(c5cnccn5)CC4)ccc3C2=O)C(=O)N1 [GT-07160, 1-(1-oxo-5-((4-(pyrazin-2-yl)piperazin-1-yl)methyl)isoindolin-2-yl)dihydropyrimidine-2,4(1H,3H)-dione] | B (80%< substrate protein remaining % ≤100%) | B (80%< substrate protein remaining % ≤100%) | A (0% ≤ substrate protein remaining % ≤80%) | B (80%< substrate protein remaining % ≤100%) | A (0% ≤ substrate protein remaining % ≤80%) | A (0% ≤ substrate protein remaining % ≤80%)
3 | Cc1cc(N2CCN(Cc3ccc4c(c3)C(=O)N(N3CCC(=O)NC3=O)C4=O)CC2)ccn1 [GT-07161, 2-(2,4-dioxotetrahydropyrimidin-1(2H)-yl)-5-((4-(2-methylpyridin-4-yl)piperazin-1-yl)methyl)isoindoline-1,3-dione] | B (80%< substrate protein remaining % ≤100%) | B (80%< substrate protein remaining % ≤100%) | A (0% ≤ substrate protein remaining % ≤80%) | B (80%< substrate protein remaining % ≤100%) | B (80%< substrate protein remaining % ≤100%) | A (0% ≤ substrate protein remaining % ≤80%)
4 | O=C1CCN(N2C(=O)c3ccc(CN4CCN(c5nccc(F)c5F)CC4)cc3C2=O)C(=O)N1 [GT-07162, 5-((4-(3,4-difluoropyridin-2-yl)piperazin-1-yl)methyl)-2-(2,4-dioxotetrahydropyrimidin-1(2H)-yl)isoindoline-1,3-dione] | B (80%< substrate protein remaining % ≤100%) | B (80%< substrate protein remaining % ≤100%) | A (0% ≤ substrate protein remaining % ≤80%) | B (80%< substrate protein remaining % ≤100%) | A (0% ≤ substrate protein remaining % ≤80%) | A (0% ≤ substrate protein remaining % ≤80%)
5 | O=C1CCN(N2C(=O)c3ccc(CN4CCN(c5ccncc5Br)CC4)cc3C2=O)C(=O)N1 [GT-07163, 5-((4-(3-bromopyridin-4-yl)piperazin-1-yl)methyl)-2-(2,4-dioxotetrahydropyrimidin-1(2H)-yl)isoindoline-1,3-dione] | B (80%< substrate protein remaining % ≤100%) | B (80%< substrate protein remaining % ≤100%) | A (0% ≤ substrate protein remaining % ≤80%) | B (80%< substrate protein remaining % ≤100%) | B (80%< substrate protein remaining % ≤100%) | A (0% ≤ substrate protein remaining % ≤80%)
6 | O=C1CCN(N2C(=O)c3ccc(CN4CCN(c5ccncc5F)CC4)cc3C2=O)C(=O)N1 [GT-07164, 2-(2,4-dioxotetrahydropyrimidin-1(2H)-yl)-5-((4-(3-fluoropyridin-4-yl)piperazin-1-yl)methyl)isoindoline-1,3-dione] | B (80%< substrate protein remaining % ≤100%) | B (80%< substrate protein remaining % ≤100%) | A (0% ≤ substrate protein remaining % ≤80%) | B (80%< substrate protein remaining % ≤100%) | B (80%< substrate protein remaining % ≤100%) | A (0% ≤ substrate protein remaining % ≤80%)
7 | O=C1CCN(N2C(=O)c3ccc(CN4CCN(c5ccncc5Cl)CC4)cc3C2=O)C(=O)N1 [GT-07165, 5-((4-(3-chloropyridin-4-yl)piperazin-1-yl)methyl)-2-(2,4-dioxotetrahydropyrimidin-1(2H)-yl)isoindoline-1,3-dione] | B (80%< substrate protein remaining % ≤100%) | B (80%< substrate protein remaining % ≤100%) | A (0% ≤ substrate protein remaining % ≤80%) | B (80%< substrate protein remaining % ≤100%) | B (80%< substrate protein remaining % ≤100%) | A (0% ≤ substrate protein remaining % ≤80%)
8 | O=C1CCN(N2C(=O)c3ccc(CN4CCN(c5ccnc(Cl)c5F)CC4)cc3C2=O)C(=O)N1 [GT-07166, 5-((4-(2-chloro-3-fluoropyridin-4-yl)piperazin-1-yl)methyl)-2-(2,4-dioxotetrahydropyrimidin-1(2H)-yl)isoindoline-1,3-dione] | B (80%< substrate protein remaining % ≤100%) | B (80%< substrate protein remaining % ≤100%) | A (0% ≤ substrate protein remaining % ≤80%) | B (80%< substrate protein remaining % ≤100%) | B (80%< substrate protein remaining % ≤100%) | A (0% ≤ substrate protein remaining % ≤80%)
9 | O=C1CCN(N2C(=O)c3ccc(CN4CCN(c5ccnc(Br)c5F)CC4)cc3C2=O)C(=O)N1 [GT-07167, 5-((4-(2-bromo-3-fluoropyridin-4-yl)piperazin-1-yl)methyl)-2-(2,4-dioxotetrahydropyrimidin-1(2H)-yl)isoindoline-1,3-dione] | B (80%< substrate protein remaining % ≤100%) | B (80%< substrate protein remaining % ≤100%) | A (0% ≤ substrate protein remaining % ≤80%) | B (80%< substrate protein remaining % ≤100%) | B (80%< substrate protein remaining % ≤100%) | A (0% ≤ substrate protein remaining % ≤80%)
10 | O=C1CCN(N2C(=O)c3ccc(CN4CCN(c5ccnc(Cl)c5Br)CC4)cc3C2=O)C(=O)N1 [GT-07168, 5-((4-(3-bromo-2-chloropyridin-4-yl)piperazin-1-yl)methyl)-2-(2,4-dioxotetrahydropyrimidin-1(2H)-yl)isoindoline-1,3-dione] | B (80%< substrate protein remaining % ≤100%) | B (80%< substrate protein remaining % ≤100%) | A (0% ≤ substrate protein remaining % ≤80%) | B (80%< substrate protein remaining % ≤100%) | B (80%< substrate protein remaining % ≤100%) | A (0% ≤ substrate protein remaining % ≤80%)
11 | O=C1CCN(N2Cc3cc(CN4CCN(c5ccnc(Cl)c5Cl)CC4)ccc3C2=O)C(=O)N1 [GT-07169, 1-(5-((4-(2,3-dichloropyridin-4-yl)piperazin-1-yl)methyl)-1-oxoisoindolin-2-yl)dihydropyrimidine-2,4(1H,3H)-dione] | A (0% ≤ substrate protein remaining % ≤80%) | B (80%< substrate protein remaining % ≤100%) | B (80%< substrate protein remaining % ≤100%) | B (80%< substrate protein remaining % ≤100%) | B (80%< substrate protein remaining % ≤100%) | B (80%< substrate protein remaining % ≤100%)

From patent publication US20260356819A1, “OXOISOINDOLINYL-SUBSTITUTED […] DERIVATIVE AND USE THEREOF” (GLUETACS THERAPEUTICS (SHANGHAI) CO., LTD., priority 2023, published 2026)
